Assay results from PubChem BioAssay AID687029 (Broad Institute, 2013).

System: RMG-1 viability, CellTiterGlo ATP luminescence, 96 h
Test: cytotoxicity in PAX8-dependent RMG-1 cells, dose response, cell-based, cherry-pick (AID 687029)

SMILES	AC50
C[C@@H]1CCCCO[C@@H](CN(C)Cc2ccc(C(F)(F)F)cc2)[C@@H](C)CN([C@@H](C)CO)C(=O)c2cc(NS(=O)(=O)c3ccc(F)cc3)ccc2O1	35.5 µM
Cc1ccc(C(=O)N/C(=C\c2ccc(-c3ccc(Br)cc3)o2)C(=O)NCCCN(C)C)cc1	12.5 µM
CCN(CC(=O)Nc1c(F)cccc1F)C(=O)c1cc(S(=O)(=O)N(C)C)ccc1N1CCCC1	< 0.26 µM
Cc1nc2sc(C(c3ccco3)N3CCN(C(c4ccccc4)c4ccccc4)CC3)c(O)n2n1 (stereo unspecified)	< 0.26 µM
O=C(CN1C(=O)c2ccccc2S1(=O)=O)c1ccc2c(c1)OCCO2	< 0.26 µM
CCC(=O)NC(c1ccc(C)cc1)c1ccc2cccnc2c1O (stereo unspecified)	< 0.26 µM
CCSc1cc(N2CCOCC2)nc(-c2ccc(Cl)cc2)n1	< 0.26 µM
CCc1cc(-c2n[nH]c(C)c2-c2nc3ccccc3n2C)c(O)cc1O	< 0.26 µM
O=C(Nc1cccc(Cl)c1)Nc1nnc(-c2ccncc2)s1	< 0.26 µM
Cc1ccc(-c2csc3ncnc(Sc4nnc(CN5CCCCCC5=O)o4)c23)cc1	10.8 µM
Cc1cc(Nc2ccc3c(c2)OCCO3)c2ccccc2n1	< 0.26 µM
CC1CC(C)(O)CC(C(O)CC2CC(=O)NC(=O)C2)C1=O (stereo unspecified)	< 0.26 µM
COc1ccc(-c2nc3c(c(SCC(=O)Nc4cccc(O)c4)n2)Cc2c(CO)cnc(C)c2O3)cc1	10.5 µM
C[C@H]1CCCCO[C@H](CN(C)Cc2ccc(C(F)(F)F)cc2)[C@@H](C)CN([C@@H](C)CO)C(=O)c2cc(NS(=O)(=O)c3ccc(Cl)cc3)ccc2O1	< 0.26 µM
O=C(Nc1cccc(NC(=O)c2cccs2)c1)c1ccc([N+](=O)[O-])o1	11.1 µM
COc1ccc(C(=O)c2ccc(Cl)c([N+](=O)[O-])c2)cc1	< 0.26 µM
C=C(C(=O)c1ccccc1)C(C(=C)C(=O)c1ccccc1)c1ccc(OC)cc1	< 0.26 µM
C[C@@H]1CCCCO[C@@H](CN(C)S(=O)(=O)c2ccc(Cl)cc2)[C@H](C)CN([C@H](C)CO)C(=O)c2cc(NS(=O)(=O)c3ccc(F)cc3)ccc2O1	1.72 µM

SMILES	AC50
CCOC(=O)c1c(C)[nH]c2c1-c1ccccc1C(=O)C2=O	< 0.26 µM
Nc1nc(=S)c2[nH]cnc2[nH]1	< 0.26 µM
COc1ccc(/C=N/NC(=O)c2[nH]c3ccc(Br)cc3c2-c2ccccc2)cc1	< 0.26 µM
CC(=O)[C@@]1(O)Cc2c(O)c3c(c(O)c2[C@H](O[C@H]2C[C@H](N)[C@H](O)[C@H](C)O2)C1)C(=O)c1ccccc1C3=O	9.48 µM
C[C@H](O)[C@@H]1CN2CCc3c([nH]c4ccc(-c5ccc6c(c5)OCO6)cc34)[C@@H]2C[C@@H]1N(C)C(=O)NC1CCCCC1	< 0.26 µM
C(=Cc1cnc2ccccc2n1)c1ccc2c(c1)OCO2	12.9 µM
COc1ccc(N2C(=O)CC(Sc3nnc(-c4ccccc4)o3)C2=O)cc1 (stereo unspecified)	< 0.26 µM
O=C(Nc1ccc(Cl)c(Cl)c1)N[C@@H]1CC[C@H](CCn2cc(C3CCCCC3)nn2)O[C@H]1CO	< 0.26 µM
O=C(Nc1ccccc1)NN(C(=O)CCl)c1ccccc1	12.3 µM
CCCCN=C[C@]12CCC(O)CC1(O)CCC1[C@@H]2CC[C@]2(C)[C@H](C3C=CC(=O)O3)CCC12O (stereo partly specified)	< 0.26 µM
C[C@@H]1CCCCO[C@@H](CN(C)C(=O)Nc2cccc3ccccc23)[C@H](C)CN([C@H](C)CO)C(=O)c2cc(NS(=O)(=O)c3ccccc3)ccc2O1	< 0.26 µM
O=c1[nH]c2ccccc2n1C1CCN(C(c2cccs2)c2nnnn2-c2ccc3c(c2)OCCO3)CC1 (stereo unspecified)	< 0.26 µM
CC1CN(CC(O)COC(c2ccccc2)c2ccccc2)CC(C)O1 (stereo unspecified)	< 0.26 µM
C[C@H](CO)N1C[C@H](C)[C@H](CN(C)Cc2ccc(C(F)(F)F)cc2)OCCCC[C@H](C)Oc2ccc(NS(=O)(=O)c3ccccc3)cc2C1=O	0.927 µM
Cc1ccc(NC(=O)CN(C)C(=O)Cn2ncc(Cl)c(Cl)c2=O)cc1	< 0.26 µM
CCN(CC)S(=O)(=O)c1cc(NC(=O)Cn2ncc(Cl)c(Cl)c2=O)ccc1C	< 0.26 µM
O=[N+]([O-])c1cccnc1S(=O)(=O)c1ccccc1	< 0.26 µM
Cc1ccc(S(=O)(=O)Nc2ccc3c(c2)CC(=O)N([C@H](C)CO)C[C@H](C)[C@H](CN(C)S(=O)(=O)c2ccc(F)cc2)O3)cc1	4.3 µM
